Measured values from patent publication US20050124618A1, “Methods of modulating angiogenesis and cancer cell proliferation” (priority 2003, published 2005).
“Also recorded” adds a separate entry of the source.

Legend:
U251 human glioma cells = test: U251 cell proliferation assay (cell counting); format: cell-based
Method: Culture Conditions: Cells were routinely maintained in DMEM (Invitrogen) supplemented with 10% heat-inactivated fetal bovine serum (FBS), penicillin (10 IU/ml), streptomycin (10 μg/ml) and 10% non-essential amino acids (all purchased from Invitrogen). Cells were maintained at 37° C. in a humidified incubator containing 5% CO2. They were grown in medium containing 10% FBS, which was then replaced with serum-free medium where U251 cells grow exponentially. Treatments were initiated one day after serum removal.
Cell Proliferation Assays: Proliferation studies were performed with cultures plated at a density that ensured exponential growth for at least 5 days. Growth medium was generally replaced by serum-free medium 24 hr after plating. Cells were treated with various concentrations of a given compounds for 24 or 48 hr as described in the Methods. […] Organic solvent never exceeded 0.1% of total culture volume. Cells were harvested by exposure to 0.05% trypsin/EDTA and counted using a hemocytometer.

p42/p44 MAPK = test: Western blot of phospho-p42/p44 MAPK in U251 cells; format: cell-based, human; conditions: 10 μM HET0016, 24 and 48 hr
Method: They were then pelleted by centrifugation at 1,000 g for 5 min at 4° C. Cells were lysed by adding RIPA buffer [20 mM HEPES (pH 7.4), 100 mM NaCl, 1% Nonidet P-40, 0.1% SDS, 1% deoxycholic acid, 10% glycerol, 1 mM EDTA, 1 mM NaVO3, 50 mM NaF, and Protease Inhibitors Set 1 (Calbiochem, La Jolla, Calif.)]. Plates were then scraped and cells collected in a 1.5-ml centrifuge tube, followed by incubation on ice for 30 min. Homogenates of the cell suspension were centrifuged for 10 min at 14,000 g and 4° C.; the pellets were discarded and protein concentrations in the supernatant determined by bicinchoninic acid (BCA) protein assay.
Typically, 20 μg of protein was separated on a 14% Tris-glycine gel (Invitrogen) and electroblotted on a PVDF membrane (Biotrace, Bothell, Wash.). Membranes were blocked for 1 h at room temperature with blocking buffer [0.2% I-Block reagent (Tropix, Bedford, Mass.), 0.1% Tween-20 in […]] before incubation with primary antibodies in blocking buffer (overnight at 4° C.). […] Both phospho-tyrosine (Y102) and phospho-serine/threonine-Pro MPM2 were detected using a 1:2000 dilution of the corresponding antibodies, whereas phospho-p44/p42MAPK and phospho-SAPK/JNK were detected using 1:1000 antibody dilutions. […]

9L gliosarcoma tumors = test: Ki-67 immunohistochemistry of 9L tumor sections; format: in vivo, rat; conditions: chronic treatment with HET0016
Method: Assessment of tumor volume: The formalin fixed brains were placed in Coronal rat brain matrix, and sliced into 3-mm blocks. These blocks were then embedded in paraffin and […] thick sections were prepared. Sections prepared for H&E staining were placed onto uncoated slides. Sections for immunohistochemistry were placed onto positively charged super frosted slides. The serial sections were either stained with H&E for to assess the size of the tumor or immunohistochemically process for Ki-67 antigen to assess for the degree of proliferation.
The sections prepared for immunohistochemistry were deparaffinized by boiling the sections in a citric buffer (pH 6.0) for 10 minutes on a hot plate. The sections were cooled to room temperature, placed in a blocking buffer [2% normal serum, 1% BSA in PBS] for 1 hr, rinsed twice in a wash buffer [0.05 Tween-20 in PBS], blocked with hydrogen peroxide for 10 min and rinsed in wash buffer. The sections were then incubated for 30 min with rabbit polyclonal anti-ki67 antibody (Abcam Inc., Cambridge, Mass.; 1:200 dilution in 1.0% BSA in PBS). The sections were rinsed in wash buffer, incubated with biotinylated Goat anti-rabbit IgG (Vector Laboratories, Inc., Burlingame, Calif.; 1:500 in PBS) for 30 min, and rewashed. […]

CCCCc1ccc(N=CNO)c(C)c1 [HET0016, N-hydroxy-N′-(4-butyl-2 methylphenyl) formamidine]
effect on EGF-induced proliferation of U251 cells (U251 human glioma cells; 200 ng/ml EGF + 10 μM HET0016, 48 hr): inhibited; also recorded: inhibits the effects of EGF | inhibition of proliferation of U251 cancer cells (FIG. 17) (U251 human glioma cells; 96-well plates, HET0016 for 48 hrs): about 50% | inhibition at 10 µM (U251 human glioma cells; Homo sapiens, U-251, 48 h): ~60% | concentration dependence of inhibition of U251 proliferation (U251 human glioma cells; various concentrations): suppressed by HET0016 in a concentration-dependent manner | phosphorylation of p42/p44 MAPK (p42/p44 MAPK): specifically inhibited phosphorylation | number of mitotic (Ki67-positive) cells in the 9L tumor (9L gliosarcoma tumors): reduction in mitosis; also recorded: greatly reduced the number of mitotic cells
